Laboratory results: patent US11052142B2, “Modified endotoxic bacteria lipopolysaccharide (variants), combination of modified lipopolysaccharides (variants) and, containing same, a vaccine (variants) and a pharmaceutical composition (variants)” (priority 2013, dated 2021)
Where two headings read alike, the source gives them in different places.

Legend:
TNF-α [1] = test: In vivo production of TNF-α in blood serum after i.v. administration to mice (data from patent RU 2154068)
From the text: In this case the vertical axis represents the values for TNF-α concentrations (pg/mL) and the values for IL-6 concentrations (ng/mL). The horizontal axis represents (A and B) the values for injection dose of preparation OM174 (mg/kg) to mice. The vertical axis (C) represents the value for injection dose of LPS ([…]; positive control) and saline solution (0.85% NaCl solution; negative control) to mice.
The solid lines represent the lines of extrapolation for the values of doses for OM174: 0.20; 2.00; 2.01; 3.40 and 28.10 (A and B) and the values of doses for Westphal LPS E coli O:111B4: 0.002; 0.020; 0.200 and 2.000 (C).
According to data from patent RU 2154068, tri-acylated and tetra-acylated lipids A of E. coli, H. influenzae and P. aeruginosa are powerful inducers of mediator of endotoxin reaction—TNF-α. Table 1 represents data extrapolated from graphs on FIG. 1 (A, B, C) relating to in vivo TNF-α production in serum after i.v. administration of tri-acylated lipid A (3-acLA) of E. coli OM-174 and Westphal LPS E. coli O:111B4 to mice. Only 10-fold difference was detected for induction of TNF-α in vivo between E. coli OM-174 tri-acylated lipid A and commercially available endotoxin Westphal LPS E. coli O:111 B4, it is evidence that there is essential endotoxicity of E. coli tri-acetylated lipid A, excluding its use both as vaccine or vaccine component (adjuvant).

TNF-α [2] = conditions: mice, i.v., extrapolated from graphs of RU 2154068, cited from earlier work

**Q.** With `CCCCCCCCCCCC(=O)O[C@H](CCCCCCCCCCC)CC(=O)N[C@H]1[C@H](OC[C@H]2O[C@H](OP(=O)(O)O)[C@H](NC(=O)C[C@H](O)CCCCCCCCCCC)[C@@H](O)[C@@H]2O)O[C@H](CO)[C@@H](OP(=O)(O)O)[C@@H]1O` [3-acLA E. coli - OM174] as the compound, how does the “difference for induction of TNF-α in vivo versus Westphal LPS E. coli O:111 B4” value (TNF-α [1]) read?
**A.** The value was 10 fold.

**Q.** What about the TNF-α concentration (TNF-α [2]; dose 0.2 mg/kg) of the same compound?
**A.** Its TNF-α concentration is 328 pg/mL.

**Q.** And the TNF-α concentration (TNF-α [2]; dose 2.0 mg/kg)?
**A.** Its TNF-α concentration is 1644 pg/mL.

**Q.** And the TNF-α concentration (TNF-α [2]; dose 2.01 mg/kg)?
**A.** The TNF-α concentration was 1416 pg/mL.

**Q.** What about the TNF-α concentration (TNF-α [2]; dose 3.4 mg/kg) of the same compound?
**A.** The TNF-α concentration was 2000 pg/mL.

**Q.** And the TNF-α concentration (TNF-α [2]; dose 28.1 mg/kg)?
**A.** Its TNF-α concentration is 2750 pg/mL.
